Test results from patent US6376169B1, “Method for diagnosing a vascular condition” (Queens University at Kingston, priority 1998, dated 2002).
“Also recorded” adds a separate entry of the source.

Columns and labels:
Assay type in all cases: cell-based, human
RTP/Drg1 protein = assay: Western blot of RTP/Drg1 protein in MDA-MB-231 cells; conditions: for reduction in RTP/Drg1 protein levels (hypoxic up-regulation), densitometry: 1% oxygen + 30% CO, 24 h; for effect of CO on up-regulation of RTP/Drg1 protein induced by cobalt chloride, Tiron and DFO: hypoxic conditions with CO; for levels of RTP/Drg1 protein: 20% oxygen, up to 72 h, 100 μM cobalt chloride, 30 mM Tiron or 100 μM DFO
Method: (§1) To determine whether hypoxia regulates the expression of certain genes (e.g., PAI-1, uPAR, RTP/Drg1) via an iron-containing heme protein, cells were cultured for up to 72 h at 20% oxygen in the presence or absence of either 100 μM cobalt chloride, or 30 mM sodium 4,5-dihydroxybenzene-1,3-disulfonate (Tiron), or 100 μM desferrioxamine mesylate (DFO) (Sigma Chemical CO., St. Louis, Mo.). Further confirmation of the role of a heme protein in hypoxic responses can be achieved by culturing cells under hypoxia in the presence of carbon monoxide, which maintains the heme protein in the oxy state and thereby blocks heme protein-mediated hypoxic responses. Thus, cells were also cultured for 24 h at 37° C. under hypoxic conditions in the presence of 30% carbon monoxide.
Western Blot Analysis. To examine levels of RTP/Drg1 protein, cells were lysed with buffer containing 40 mM HEPES pH 7.2, 100 mM NaCl, 20% glycerol, 0.1 mM EDTA pH 8.0, 0.2% Triton X-100 (polyoxyethylene (10) isooctylphenyl ether), 1 mM DTT, and 2 mM PMSF, and centrifuged briefly at 4° C. The supernatants were collected and stored at −80° C. until use. SDS-PAGE was performed and resolved proteins were transferred to Immobilon-P membranes (Millipore Corp., Bedford, Mass.) using a semi-dry transfer cell (Bio-Rad Laboratories, Mississauga, ON). Membranes were blocked by incubation overnight at 4° C. in a PBS-buffered solution containing 0.01% Tween 20 (polyoxyethylene(20) sorbitan monolaurate) (PBS-T) and 5% casein. The blots were then incubated with polyclonal rabbit anti-Drg1 antiserum followed by incubation with a peroxidase labeled goat anti-rabbit IgG secondary antibody (Vector Lab. Inc., Burlingame, Calif.). Antigen was detected by enhanced chemiluminescence (ECL, Amersham Canada Inc., Oakville, ON) and exposure of the membrane onto Dupont Reflection NEF film (Dupont Canada, Inc., Mississauga ON).

uPAR mRNA = assay: Northern blot of uPAR mRNA in HTR-8/SVneo cells; conditions: 24 h
Method: as §1, with “Thus, cells were also cultured for 24 h at 37° C. under hypoxic conditions in the presence of 30% carbon monoxide.” left out
Northern Blot Analysis. Total RNA was isolated from cell lines as described above. […] RNA was transferred to nylon membranes (Micron Separations, Inc., Westboro, Mass.). […] The hybridization solution contained 6×SSC, 0.5% SDS, 100 μg/mL denatured salmon sperm DNA, 50% formamide and cDNA probe. After hybridization, the membranes were washed with 2×SSC and 0.5% SDS at room temperature for 15 min, 2×SSC and 0.1% SDS at room temperature for 15 min, and 0.1×SSC and 0.5% SDS for 30 min. Dupont Reflection NEF film (Dupont Canada, Inc., Mississauga, ON) was exposed to the membranes for 1-3 days at −80° C. Bands on radiographic film were analyzed using a SigmaGel gel analysis software package (Jandel Scientific Software, San Rafael, Calif.).

RTP/Drg1 mRNA = assay: Northern blot of RTP/Drg1 mRNA in MDA-MB-231 cells; conditions: for effect on hypoxic up-regulation of RTP/Drg1 mRNA: 1% oxygen + 30% CO, 24 h; for effect of CO on up-regulation of RTP/Drg1 mRNA induced by cobalt chloride, Tiron and DFO: hypoxic conditions with CO; for levels of RTP/Drg1 mRNA: 20% oxygen, up to 72 h, 100 μM cobalt chloride, 30 mM Tiron or 100 μM DFO
Method: as §1
(§2) Northern Blot Analysis. Total RNA was isolated from cell lines as described above. Aliquots of 20 μg were denatured and subjected to electrophoresis in 1% agarose-formaldehyde gels (Sambrook, J., Fritsch, E. F., and Maniatis, T. Molecular Cloning: A Laboratory Manual, Cold Spring Harbor Laboratory, Cold Spring Harbor, N.Y. (1989)). RNA was transferred to nylon membranes (Micron Separations, Inc., Westboro, Mass.). After prehybridization at 42° C. for 2-3 h in 50% formamide, 5×Denhardt's solution, 0.5% sodium dodecyl sulfate (SDS), 6×SSC (1×SSC: 0.15M NaCl, 15 mM sodium citrate, pH 7.0), and 100 μg/mL denatured salmon sperm DNA, membranes were hybridized for a period of time of overnight (˜18 h) to about 72 h at 42° C. with a cDNA probe (e.g., RTP/Drg1, PAI-1 (PAI-1 cDNA provided by Dr. Keith McCrae, Temple University School of Medicine, Philadelphia, Pa.), uPAR (Higazi A, et al., J Biol Chem 266:12752, (1995)) pre-labeled with [^32P]-dCTP using a Pharmacia Oligolabelling kit (Pharmacia Biotech, Piscataway, N.J.). The hybridization solution contained 6×SSC, 0.5% SDS, 100 μg/mL denatured salmon sperm DNA, 50% formamide and cDNA probe. After hybridization, the membranes were washed with 2×SSC and 0.5% SDS at room temperature for 15 min, 2×SSC and 0.1% SDS at room temperature for 15 min, and 0.1×SSC and 0.5% SDS for 30 min. Dupont Reflection NEF film (Dupont Canada, Inc., Mississauga, ON) was exposed to the membranes for 1-3 days at −80° C. Bands on radiographic film were analyzed using a SigmaGel gel analysis software package (Jandel Scientific Software, San Rafael, Calif.).

PAI-1 mRNA = assay: Northern blot of PAI-1 mRNA in HTR-8/SVneo cells; conditions: for increase in PAI-1 mRNA (3.0-kb and 2.3-kb transcripts): 24 hours in the presence of compound
Method: as §1, with “Thus, cells were also cultured for 24 h at 37° C. under hypoxic conditions in the presence of 30% carbon monoxide.” left out
as §2, with “After hybridization, the membranes were washed with 2×SSC and 0.5% SDS at room temperature for 15 min, 2×SSC and 0.1% SDS at room temperature for 15 min, and 0.1×SSC and 0.5% SDS for 30 min. Dupont Reflection NEF film (Dupont Canada, Inc., Mississauga, ON) was exposed to the membranes for 1-3 days at −80° C.” left out, “Calif.). […]” for “Calif.).”

uPAR = uPAR expression by flow cytometry (mAb 3937) on HTR-8/SVneo cells; conditions: for effect on the inhibition by carbon monoxide of hypoxia-induced uPAR expression: compound in the medium, hypoxia + CO, two independent experiments
Method: as §1
Determination of uPAR expression by flow cytometry. For flow cytometry, cells were released from flasks by incubation in cold PBS containing 5 mM EDTA. One million cells were then incubated for 1 h, at 4° C., with either 10 μg/ml of mAb 3937, or control mouse IgG2a, used at the same concentration. Bound antibody was detected using FITC-conjugated goat anti-mouse immunoglobulin. Cells were then fixed with 2% paraformaldehyde in PBS prior to analysis using a Coulter Elite Flow Cytometer.

[1] = standard (20% O2) conditions with compound

| Structure (SMILES) | reduction in RTP/Drg1 protein levels (hypoxic up-regulation), densitometry (RTP/Drg1 protein) | reduction in RTP/Drg1 protein levels (hypoxic up-regulation), densitometry (RTP/Drg1 protein; listed as CO) | effect of CO on up-regulation of RTP/Drg1 protein induced by cobalt chloride, Tiron and DFO (RTP/Drg1 protein) | effect of CO on up-regulation of RTP/Drg1 protein induced by cobalt chloride, Tiron and DFO (RTP/Drg1 protein; listed as CO) | reduction of hypoxia-mediated increase in uPAR mRNA (uPAR mRNA; 1% O2 + 20% carbon monoxide) | increase in uPAR mRNA vs standard conditions alone (uPAR mRNA; hypoxic (1% O2) conditions in the presence of 20% carbon monoxide) | effect on hypoxic up-regulation of RTP/Drg1 mRNA (RTP/Drg1 mRNA) | effect on hypoxic up-regulation of RTP/Drg1 mRNA (RTP/Drg1 mRNA; listed as CO) | effect of CO on up-regulation of RTP/Drg1 mRNA induced by cobalt chloride, Tiron and DFO (RTP/Drg1 mRNA) | effect of CO on up-regulation of RTP/Drg1 mRNA induced by cobalt chloride, Tiron and DFO (RTP/Drg1 mRNA; listed as CO) | effect on hypoxia-mediated increase in PAI-1 mRNA levels (PAI-1 mRNA; 1% oxygen + 20% carbon monoxide, 24 hours) | inhibition of hypoxia-induced expression of uPAR (uPAR; 1% O2 + 20% carbon monoxide, 24 h, flow cytometry) | levels of RTP/Drg1 protein (RTP/Drg1 protein) | increase in uPAR mRNA vs standard conditions alone (uPAR mRNA; [1]) | levels of RTP/Drg1 mRNA (RTP/Drg1 mRNA) | increase in PAI-1 mRNA (3.0-kb and 2.3-kb transcripts) (PAI-1 mRNA) | effect on the inhibition by carbon monoxide of hypoxia-induced uPAR expression (uPAR) |
| --- | --- | --- | --- | --- | --- | --- | --- | --- | --- | --- | --- | --- | --- | --- | --- | --- | --- |
| [C-]#[O+] [carbon monoxide] | abrogated | 57% | did not inhibit | unable to inhibit | 35% | 1.8 fold | abrogated | substantial decrease in mRNA levels | did not inhibit | unable to inhibit | prevented most of the hypoxia-mediated increase in PAI-1 mRNA levels; also recorded: abolished the effect of hypoxia on PAI-1 mRNA levels | 56% |  |  |  |  |  |
| O=S(=O)([O-])c1cc(O)c(O)c(S(=O)(=O)[O-])c1.[Na+].[Na+] [Tiron, sodium 4,5-dihydroxybenzene-1,3-disulfonate] |  |  |  |  |  |  |  |  |  |  |  |  | time-dependent increases in RTP/Drg1 protein | > 10 fold | time-dependent increases in RTP/Drg1 mRNA | substantial increase | completely prevented |
| [Cl][Co][Cl] [cobalt chloride] |  |  |  |  |  |  |  |  |  |  |  |  | time-dependent increases in RTP/Drg1 protein | 3.5 fold | time-dependent increases in RTP/Drg1 mRNA | about 2 fold | completely prevented |
